Experimental data: US12558337B2, “Formulations comprising melflufen” (ON[…], priority 2019, dated 2026)
Values joined by “and” are separate entries in the source; they are usually repeats but may differ in a detail not shown here. Identical values can stand only once.

Assays:
Type in all cases: physicochemical
[1] = Stability of isolated melflufen freebase oil; settings: colorless oil; room temperature; several days
Experimental: The hydrochloride salt of melflufen may be prepared as disclosed in WO 01/96367, which is incorporated herein by reference. Ethanesulfonate, maleate and p-toluenesulfonate salts of melflufen were prepared by treating the melflufen freebase with 1 equivalent of the respective acid in dichloromethane or ethyl acetate. If required, heptane was added to initiate salt precipitation. All salts were isolated as white solids in a 1:1 ratio of melflufen and counterion, and dried under high vacuum. Melflufen freebase was prepared from melflufen hydrochloride using NaHCO3 and dichloromethane (DCM). Melflufen hydrochloride was suspended in 100 mL of dichloromethane before an ice-cold solution of NaHCO3(aq) was added. The mixture was shaken for 30 seconds and the phases were allowed to settle. The organic phase was collected and dried over MgSO4 before the solvent was removed in vacuo at 0° C. Melflufen freebase was isolated as a colorless oil. No degradation of melflufen was observed by HPLC analysis and the oil was stable at room temperature for several days.

[2] = Stability study of formulation containing melflufen (OPD-5) and propylene glycol at 2-8° C., 25° C. and 40° C. (RP-HPLC, visual appearance); settings: in propylene glycol; for change in melflufen concentration on storage: up to 168 days
Experimental: (§1) Vials (2R type 1 glass vials, Gerresheimer, #35601558) were washed with purified water (≤0.2 μmS/cm, <10 ppb Total Organic Carbon (TOC)). Afterwards, the vials were dried and heat-treated at 300° C. for 2 hours. Rubber stoppers were autoclaved at 121° C. and 2 bar for 15 min.
(§2) The formulation was prepared by dissolving melflufen (OPD-5) at a concentration of approximately 20 mg/mL (excluding the mass of the counterion) in propylene glycol (1,2-Propanediol, EMPROVE® exp Ph Eur, BP, USP, Merck Chemicals, #K49954578). 1 mL of the melflufen solution was added into each vial. The filled vials were then closed with a rubber stopper and crimp capped. The 1 mL samples were analysed at T0 (i.e. before storage) and after storage for approximately 4 weeks (T1), 8 weeks (T2), 12 weeks (T3), and 24 weeks (T4) at 2-8° C., 25° C. or 40° C.
(§3) RP-HPLC analysis was performed using an Agilent 1100 series Liquid Chromatography, and an)(Bridge® Shield (RP18, 3.5 μm, 4.6×150 mm) column. The method used a 0-80% B gradient over 20 min and a flow of 1.0 mL/min (mobile phase A: 10 mM ammonium acetate pH 5.0/acetonitrile 86/14 v/v; mobile phase B: acetonitrile), a column temperature of 20° C., a sampler temperature of 5° C., and UV detection at 262 nm. The pharmaceutical formulations were diluted to a melflufen concentration of 0.8 mg/mL using an ethanol/acetonitrile diluent (3:7 v/v) prior to RP-HPLC analysis.

[3] = Stability study of formulation containing melflufen (OPD-5) and PEG 300 at 2-8° C., 25° C. and 40° C. (RP-HPLC, visual appearance); settings: in PEG 300; for change in melflufen concentration on storage: up to 164 days
Experimental: as §1
(§4) The formulation was prepared by dissolving melflufen (OPD-5) at a concentration of approximately 20 mg/mL (excluding the mass of the counterion) in polyethylene glycol (polyethylene glycol 300, Emprove exp., Ph. Eur, Merck Chemicals, #K47544702). 1 mL of the melflufen solution was added into each vial. The filled vials were then closed with a rubber stopper and crimp capped. The 1 mL samples were analysed at T0 (i.e. before storage) and after storage for approximately 4 weeks (T1a), 8 weeks (T2a), 12 weeks (T3a), and 24 weeks (T4a) at 2-8° C., 25° C. or 40° C.
as §3, with “an XBridge®” for “an)(Bridge®”

[4] = Stability study of formulation containing melflufen (OPD-5) and propylene glycol at −20° C. and −70° C.; settings: in propylene glycol
Experimental: 536.25 mg of melflufen (OPD-5) was weighed into a […] volumetric flask. The flask was then filled with propylene glycol (W294004-1 Kg-K, Lot no: MKCD8681, Sigma-Aldrich). The resulting mixture was vortexed for 3 minutes. The mixture was then stirred for 15 minutes at 28° C. with occasional vortexing to furnish a clear solution having a melflufen concentration of approximately 20 mg/mL (excluding the mass of the counterion). The solution was aliquoted into 1 mL vials and stored at −70° C. or at −20° C.
The concentration and purity (% relative peak area) of melflufen in the propylene glycol formulation was analysed at time 0 (T0b) and then every 1 month by RP-HPLC. For each time point, two replicated were analysed (i.e. two separate vials of the formulation). At each time point the vials were visually checked for any color change or precipitation.
RP-HPLC analysis was performed using an Agilent 1100 series Liquid Chromatography, and an XBridge® C18 (2.1×100 mm, 3.5 μm) column. The method used a 5-95% B gradient over 6 min and a flow of 0.8 mL/min (mobile phase A: 0.1% formic acid in water; mobile phase B: 0.1% formic acid in acetonitrile), a column temperature of 55° C., a sampler temperature of 25° C., and UV detection at 262 nm. Samples were then diluted to 200 μg/mL concentration in DMA before injection into RP-HPLC. An injection volume of 5 μL was used.

[5] = Solubility of melflufen (OPD-5) in propylene glycol; settings: approximately 20 mg/mL prepared
Experimental: as §2

[6] = Solubility of melflufen (OPD-5) in PEG 300; settings: approximately 20 mg/mL prepared
Experimental: as §4

[7] = 2-8° C., T1 (31 days), hydrochloride
[8] = 2-8° C., T4 (168 days), hydrochloride
[9] = 25° C., T1 (31 days), hydrochloride
[10] = 25° C., T3 (98 days), hydrochloride
[11] = 25° C., T4 (168 days), hydrochloride
[12] = 40° C. (accelerated storage condition), over time
[13] = 2-8° C., T1a (26 days), hydrochloride
[14] = 2-8° C., T2a (54 days), hydrochloride
[15] = 2-8° C., T3a (94 days), hydrochloride
[16] = 25° C., T1a (26 days), hydrochloride
[17] = 25° C., T2a (54 days), hydrochloride
[18] = 25° C., T3a (94 days), hydrochloride
[19] = 25° C., T4a (164 days), hydrochloride

CCOC(=O)[C@H](Cc1ccc(F)cc1)NC(=O)[C@@H](N)Cc1ccc(N(CCCl)CCCl)cc1 [Melflufen freebase, L-Melphalanyl-4-fluoro-L-phenylalanine ethyl ester]
stability of the oil [1]: stable

Cl.[2H]C([2H])([2H])C([2H])([2H])OC(=O)[C@H](Cc1ccc(F)cc1)NC(=O)[C@@H](N)Cc1ccc(N(CCCl)CCCl)cc1 [OPD-5, (^2H5)ethyl (2S)-2-[(2S)-2-amino-3-{4-[bis(2-chloroethyl)amino]phenyl}propanamido]-3-(4-fluorophenyl)propanoate hydrochloride]
Concentration of melfufen (ODP-5) [2, 7]: 20100 µg/mL and 20200 µg/mL
Purity of melfufen (ODP-5) [2, 7]: 99.1 % relative peak area and 99.3 % relative peak area
Purity of melfufen (ODP-5) ([2]; 2-8° C., T2 (59 days)): 99.2 % relative peak area
Concentration of melfufen (ODP-5) ([2]; 2-8° C., T2 (59 days), hydrochloride): 19800 µg/mL and 20300 µg/mL
Concentration of melfufen (ODP-5) ([2]; 2-8° C., T3 (98 days)): 20500 µg/mL
Purity of melfufen (ODP-5) ([2]; 2-8° C., T3 (98 days), hydrochloride): 99.0 % relative peak area and 98.5 % relative peak area
Concentration of melfufen (ODP-5) [2, 8]: 18400 µg/mL and 18300 µg/mL
Purity of melfufen (ODP-5) [2, 8]: 95.4 % relative peak area and 95.8 % relative peak area
visual appearance ([2]; 2-8° C., at each time point (T1, T2, T3 and T4)): no visible colouration
change in melflufen concentration on storage ([2]; 2-8° C.): no significant change
Concentration of melfufen (ODP-5) [2, 9]: 15700 µg/mL and 15800 µg/mL
Purity of melfufen (ODP-5) [2, 9]: 89.0 % relative peak area and 89.3 % relative peak area
Purity of melfufen (ODP-5) ([2]; 25° C., T2 (59 days)): 81.3 % relative peak area
Concentration of melfufen (ODP-5) ([2]; 25° C., T2 (59 days), hydrochloride): 14100 µg/mL and 12200 µg/mL
Concentration of melfufen (ODP-5) [2, 10]: 8800 µg/mL and 8400 µg/mL
Purity of melfufen (ODP-5) [2, 10]: 68.1 % relative peak area and 66.6 % relative peak area
Concentration of melfufen (ODP-5) [2, 11]: 5100 µg/mL and 4900 µg/mL
Purity of melfufen (ODP-5) [2, 11]: 49.9 % relative peak area and 48.7 % relative peak area
visual appearance ([2]; 25° C., over time (T1 to T4)): yellow to brown colouration that increased in intensity over time
change in melflufen concentration on storage ([2]; 25° C.): decrease over time
visual appearance [2, 12]: yellow to brown colouration that increased in intensity over time
melflufen purity retained (relative to the melflufen purity before storage of the formulation) ([2]; about 5° C. (2 to 8° C.), over 50 days): greater than 95%
visual appearance ([3]; 2-8° C., 26 days (T1a)): slight yellow colouration
visual appearance ([3]; 2-8° C., 54 days (T2a), 94 days (T3a) and 164 days (T4a)): small increase in the intensity of the yellow colouration
Concentration of melfufen (ODP-5) [3, 13]: 19900 µg/mL and 19800 µg/mL
Purity of melfufen (ODP-5) [3, 13]: 96.7 % relative peak area and 96.9 % relative peak area
Concentration of melfufen (ODP-5) [3, 14]: 19900 µg/mL and 19300 µg/mL
Purity of melfufen (ODP-5) [3, 14]: 95.2 % relative peak area and 95.5 % relative peak area
Concentration of melfufen (ODP-5) [3, 15]: 18700 µg/mL and 18900 µg/mL
Purity of melfufen (ODP-5) [3, 15]: 92.7 % relative peak area and 92.6 % relative peak area
Concentration of melfufen (ODP-5) ([3]; 2-8° C., T4a (164 days)): 18700 µg/mL
Purity of melfufen (ODP-5) ([3]; 2-8° C., T4a (164 days), hydrochloride): 91.4 % relative peak area and 91.3 % relative peak area
change in melflufen concentration on storage ([3]; 2-8° C.): no significant change
Concentration of melfufen (ODP-5) [3, 16]: 18100 µg/mL and 17900 µg/mL
Purity of melfufen (ODP-5) [3, 16]: 89.3 % relative peak area and 89.6 % relative peak area
Concentration of melfufen (ODP-5) [3, 17]: 14400 µg/mL and 15300 µg/mL
Purity of melfufen (ODP-5) [3, 17]: 83.8 % relative peak area and 85.1 % relative peak area
Concentration of melfufen (ODP-5) [3, 18]: 11200 µg/mL and 11300 µg/mL
Purity of melfufen (ODP-5) [3, 18]: 74.2 % relative peak area and 74.7 % relative peak area
Concentration of melfufen (ODP-5) [3, 19]: 9800 µg/mL and 9500 µg/mL
Purity of melfufen (ODP-5) [3, 19]: 70 % relative peak area and 68.1 % relative peak area
visual appearance ([3]; 25° C., over time (T1a to T4a)): yellow to brown colouration that increased in intensity over time
change in melflufen concentration on storage ([3]; 25° C.): decrease over time
visual appearance [3, 12]: yellow to brown colouration that increased in intensity over time
time for which the formulation was stable ([4]; −20° C.): at least 6 months
change in melflufen (OPD-5) concentration ([4]; −20° C., 6 month test period): no notable change
melflufen purity retained (relative to the melflufen purity before storage of the formulation) ([4]; −20° C., 6 months): greater than 99.5%
colour change or precipitation (visual check) ([4]; −70° C. and −20° C., 6-8 month test period): No colour change or precipitation
change in melflufen (OPD-5) concentration ([4]; −70° C., 8 month test period): no notable change
melflufen purity retained (relative to the melflufen purity before storage of the formulation) ([4]; −70° C., 8 months): greater than 99.5%
solubility in propylene glycol [5]: readily soluble
solubility in PEG 300 [6]: readily soluble
